Experiments:
Format in all cases: functional
[1] = test system: Mus musculus; assay: Percent decrease in glucose of db/db mouse was measured at 100 mg/kg/day dosage.
[2] = test system: Mus musculus; assay: Percent decrease in glucose of db/db mouse was measured at 20 mg/kg/day dosage
[3] = test system: Mus musculus; assay: % decrease in glucose of 4 day ob/ob mouse was measured at 50 mg/kg/day dosage.
[4] = test system: Mus musculus; assay: % decrease in insulin of 4 day ob/ob mouse was measured at 50 mg/kg/day dosage.
[5] = test system: Mus musculus; assay: % decrease in glucose of 4 day ob/ob mouse was measured at 100 mg/kg/day dosage.
[6] = test system: Mus musculus; assay: % decrease in insulin of 4 day ob/ob mouse was measured at 100 mg/kg/day dosage.

With Cc1ccc(S(=O)(=O)C2(CC#Cc3ccc(Cl)cc3)SC(=O)NC2=O)cc1 (configuration not stated) the Decrease [1] was 35%.
For O=C1NC(=O)C(CC#Cc2ccc(Br)cc2)(S(=O)(=O)c2ccc(Cl)cc2)S1 (configuration not stated), the Decrease [2] was less than 15% and the Decrease [1] was 68%.
Cc1cccc(S(=O)(=O)C2(CC#Cc3ccc(Cl)cc3)SC(=O)NC2=O)c1 (configuration not stated) gave a Decrease [1] of 33%.
O=C1NC(=O)C(CC#Cc2ccc(Cl)cc2)(S(=O)(=O)c2ccc(Cl)cc2)S1 (configuration not stated) was tested, and the Decrease [3] was 47%, the Decrease [4] was 56% and the Decrease [2] was 18%. It also gave a Decrease [1] of 70%.
Molecule Cc1cccc(S(=O)(=O)C2(CC#Cc3ccccc3)SC(=O)NC2=O)c1 (configuration not stated) has a Decrease [2] of less than 15% and a Decrease [1] of 48%.
Work on O=C1NC(=O)C(CC#Cc2ccc(C(F)(F)F)cc2)(S(=O)(=O)c2ccccc2)S1 (configuration not stated) yielded a Decrease [2] of less than 15% and a Decrease [1] of 59%.
O=C1NC(=O)C(CC#Cc2cc(C(F)(F)F)cc(C(F)(F)F)c2)(S(=O)(=O)c2ccccn2)S1 (configuration not stated) showed a Decrease [2] of less than 15%.
O=C1NC(=O)C(CC#Cc2ccccc2Cl)(S(=O)(=O)c2ccccc2)S1 (configuration not stated) showed a Decrease [1] of less than 15%.
In the case of O=C1NC(=O)C(CC#Cc2ccc(Cl)cc2)(S(=O)(=O)c2ccc(Br)cc2)S1 (configuration not stated), the Decrease [3] is reported as 36%, the Decrease [4] is reported as 69% and the Decrease [2] is reported as less than 15%. The Decrease [1] was 69%.
Molecule O=C1NC(=O)C(CC#Cc2ccc(F)cc2)(S(=O)(=O)c2ccc(Cl)cc2)S1 (configuration not stated) has a Decrease [2] of less than 15% and a Decrease [1] of 54%.
O=C1NC(=O)C(CC#Cc2ccc(F)cc2)(S(=O)(=O)c2ccc(F)cc2)S1 (configuration not stated) showed a Decrease [2] of 25% and a Decrease [1] of 57%.
Work on COc1ccc(S(=O)(=O)C2(CC#Cc3ccccc3)SC(=O)NC2=O)cc1 (configuration not stated) yielded a Decrease [1] of 21%.
For COc1ccc(C#CCC2(S(=O)(=O)c3ccccc3)SC(=O)NC2=O)cc1 (configuration not stated), the Decrease [1] was 25%.
Work on Cc1ccc(S(=O)(=O)C2(CC#Cc3ccc(Br)cc3)SC(=O)NC2=O)cc1 (configuration not stated) yielded a Decrease [2] of 23% and a Decrease [1] of 51%.
In the case of Cc1ccc(C#CCC2(S(=O)(=O)c3ccccc3)SC(=O)NC2=O)cc1 (configuration not stated), the Decrease [1] is reported as less than 15%.
For O=C1NC(=O)C(CC#Cc2cccc(Cl)c2)(S(=O)(=O)c2ccccc2)S1 (configuration not stated), the Decrease [1] was less than 15%.
Molecule Cc1ccc(S(=O)(=O)C2(CC#Cc3cc(C(F)(F)F)cc(C(F)(F)F)c3)SC(=O)NC2=O)cc1 (configuration not stated) has a Decrease [1] of 22%.
Molecule O=C1NC(=O)C(CC#Cc2ccccc2)(S(=O)(=O)c2ccccc2)S1 (configuration not stated) has a Decrease [1] of less than 15%.
Molecule O=C1NC(=O)C(CC#Cc2ccc(Cl)cc2)(S(=O)(=O)c2ccc3ccccc3n2)S1 (configuration not stated) has a Decrease [2] of less than 15%.
With Cc1ccc(S(=O)(=O)C(CC#Cc2ccc(Cl)cc2)C(=O)O)cc1 (configuration not stated) [TIBEGLISENE] the Decrease [3] was less than 15%, the Decrease [4] was 54% and the Decrease [1] was 30%.
O=C1NC(=O)C(CC#Cc2ccc(F)cc2)(S(=O)(=O)c2ccccn2)S1 (configuration not stated) showed a Decrease [3] of 44%, a Decrease [4] of 54% and a Decrease [2] of 36%. For the same molecule, the Decrease [1] was 67%.
In the case of Cc1ccc(SC2(CC#Cc3ccc(Cl)cc3)SC(=O)NC2=O)cc1 (configuration not stated), the Decrease [1] is reported as 27%.
In the case of O=C1NC(=O)C(CC#Cc2ccc(Cl)cc2)(Sc2ccccc2)S1 (configuration not stated), the Decrease [1] is reported as less than 15%.
O=C1NC(=O)C(CC#Cc2ccc(C(F)(F)F)cc2)(S(=O)(=O)c2ccc(F)cc2)S1 (configuration not stated) gave a Decrease [2] of less than 15% and a Decrease [1] of 52%.
CC1(COc2ccc(CC3SC(=O)NC3=O)cc2)CCCCC1 (configuration not stated) [CIGLITAZONE] gave a Decrease [5] of 43%, a Decrease [2] of less than 15% and a Decrease [1] of 32%. It also gave a Decrease [6] of 39%.
Molecule O=C1NC(=O)C(CC#Cc2ccccc2)(S(=O)(=O)c2ccc(F)cc2)S1 (configuration not stated) has a Decrease [1] of 26%.
Cc1ccc(S(=O)(=O)C2(CC#Cc3ccccc3)SC(=O)NC2=O)cc1 (configuration not stated) gave a Decrease [2] of 23% and a Decrease [1] of 43%.
Cc1cccc(SC2(CC#Cc3ccc(Cl)cc3)SC(=O)NC2=O)n1 (configuration not stated) was tested, and the Decrease [1] was less than 15%.
O=C1NC(=O)C(CC#Cc2ccc(Br)cc2)(S(=O)(=O)c2ccccc2)S1 (configuration not stated) gave a Decrease [2] of less than 15% and a Decrease [1] of 53%.
For Cc1ccc(S(=O)(=O)C2(CC#Cc3cccc(Cl)c3)SC(=O)NC2=O)cc1 (configuration not stated), the Decrease [1] was 30%.
For O=C1NC(=O)C(CC#Cc2ccc(F)c(F)c2)(S(=O)(=O)c2ccc(F)cc2)S1 (configuration not stated), the Decrease [1] was 33%.
With Cc1ccc(S(=O)(=O)C2(CC#Cc3ccc(C(F)(F)F)cc3)SC(=O)NC2=O)cc1 (configuration not stated) the Decrease [2] was less than 15% and the Decrease [1] was 36%.
O=C1NC(=O)C(CC#Cc2cc(C(F)(F)F)cc(C(F)(F)F)c2)(S(=O)(=O)c2ccccc2)S1 (configuration not stated) was tested, and the Decrease [2] was 21% and the Decrease [1] was 54%.
Work on O=C1NC(=O)C(CC#Cc2ccc(Cl)cc2)(S(=O)(=O)c2ccccn2)S1 (configuration not stated) yielded a Decrease [2] of 38% and a Decrease [1] of 55%.
For Cc1ccc(C#CCC2(S(=O)(=O)c3ccc(C)cc3)SC(=O)NC2=O)cc1 (configuration not stated), the Decrease [1] was 28%.
O=C1NC(=O)C(CC#Cc2ccc(Cl)cc2)(Sc2ccc(F)cc2)S1 (configuration not stated) gave a Decrease [1] of less than 15%.
With O=C1NC(=O)C(CC#Cc2ccc(Cl)cc2)(S(=O)(=O)c2ccc3ccccc3c2)S1 (configuration not stated) the Decrease [1] was 20%.
In the case of Cc1cccc(S(=O)(=O)C2(CC#Cc3ccc(Cl)cc3)SC(=O)NC2=O)n1 (configuration not stated), the Decrease [2] is reported as less than 15% and the Decrease [1] is reported as less than 15%.
With O=C1NC(=O)C(CC#Cc2ccccc2)(S(=O)(=O)c2ccc(Cl)cc2)S1 (configuration not stated) the Decrease [1] was 36%.
In the case of O=C1NC(=O)C(CC#Cc2ccc(Cl)cc2)(Sc2ccc3ccccc3n2)S1 (configuration not stated), the Decrease [1] is reported as less than 15%.
With O=C1NC(=O)C(S(=O)(=O)c2ccc3ccccc3c2)S1 (configuration not stated) the Decrease [1] was 21%.
In the case of O=C1NC(=O)C(CC#Cc2ccc(OC(F)(F)F)cc2)(S(=O)(=O)c2ccc(F)cc2)S1 (configuration not stated), the Decrease [2] is reported as less than 15% and the Decrease [1] is reported as 56%.
O=C1NC(=O)C(CC#Cc2ccc(Cl)cc2)(Sc2ccccn2)S1 (configuration not stated) gave a Decrease [1] of less than 15%.
For O=C1NC(=O)C(CC#Cc2ccc(C(F)(F)F)cc2)(S(=O)(=O)c2ccc(Cl)cc2)S1 (configuration not stated), the Decrease [1] was 37%.
O=C1NC(=O)C(CC#Cc2ccc(Br)cc2)(S(=O)(=O)c2ccc(F)cc2)S1 (configuration not stated) showed a Decrease [2] of less than 15% and a Decrease [1] of 70%.
Work on O=C1NC(=O)C(CC#Cc2ccc(Cl)cc2)(Sc2ccc(Cl)cc2)S1 (configuration not stated) yielded a Decrease [1] of 24%.
Work on O=C1NC(=O)C(CC#Cc2ccc(Cl)cc2)(S(=O)(=O)c2ccc(F)cc2)S1 (configuration not stated) yielded a Decrease [2] of 31% and a Decrease [1] of 79%.
Molecule O=C1NC(=O)C(CC#Cc2ccc(F)cc2)(S(=O)(=O)c2ccc(Br)cc2)S1 (configuration not stated) has a Decrease [2] of less than 15% and a Decrease [1] of 64%.
COc1ccc(S(=O)(=O)C2(CC#Cc3ccc(Cl)cc3)SC(=O)NC2=O)cc1 (configuration not stated) was tested, and the Decrease [2] was less than 15% and the Decrease [1] was 45%.
For COc1ccc(C#CCC2(S(=O)(=O)c3ccc(C)cc3)SC(=O)NC2=O)cc1 (configuration not stated), the Decrease [1] was less than 15%.
For O=C1NC(=O)C(CC#Cc2ccc(Cl)cc2)(S(=O)(=O)c2ccccc2)S1 (configuration not stated), the Decrease [5] was 40%, the Decrease [2] was 21% and the Decrease [1] was 52%. For the same molecule, the Decrease [6] was 65%.
With Cc1ccc(S(=O)(=O)C2(CC#Cc3ccccc3Cl)SC(=O)NC2=O)cc1 (configuration not stated) the Decrease [1] was 30%.
In the case of Cc1ccc(S(=O)(=O)C2(CC#Cc3ccc(F)cc3)SC(=O)NC2=O)cc1 (configuration not stated), the Decrease [3] is reported as 30%, the Decrease [4] is reported as 30% and the Decrease [2] is reported as less than 15%. It also gave a Decrease [1] of 65%.
Molecule O=C1NC(=O)C(CC#Cc2ccccc2)(S(=O)(=O)c2ccc3ccccc3c2)S1 (configuration not stated) has a Decrease [1] of 24%.
O=C1NC(=O)C(CC#Cc2ccccc2)(S(=O)(=O)c2ccc(Br)cc2)S1 (configuration not stated) was tested, and the Decrease [2] was less than 15% and the Decrease [1] was 43%.
In the case of O=C1NC(=O)C(CC#Cc2ccc(F)cc2)(S(=O)(=O)c2ccccc2)S1 (configuration not stated), the Decrease [2] is reported as less than 15% and the Decrease [1] is reported as 58%.
CSc1ccc(C#CCC2(S(=O)(=O)c3ccc(F)cc3)SC(=O)NC2=O)cc1 (configuration not stated) showed a Decrease [1] of less than 15%.

Reference: ChEMBL document CHEMBL1131377, “Novel 5-(3-aryl-2-propynyl)-5-(arylsulfonyl)thiazolidine-2,4-diones as antihyperglycemic agents” (1998)
